From patent US9447028B2, “Therapeutic aryl-amido-aryl compounds and their use” (King's College London, priority 2009, dated 2016)

Assays:
Format in all cases: cell-based
RARα = biological target: T1, RARα (Homo sapiens, UniProt P10276); test: Transactivation assay for RAR alpha (gal4-RAR fusion, luciferase reporter, COS-7 cells); conditions: for RARα/RARβ ratio (*): fold-selectivity for RARα over RARβ; for RARα activity ratio: ratio of test compound EC50 to that of atRA on the same plate
T1 construct: gal4 (fusion partner); expressed in transfected cells; host or cells: COS-7
T1 sequence (P10276 183-417 limits assumed): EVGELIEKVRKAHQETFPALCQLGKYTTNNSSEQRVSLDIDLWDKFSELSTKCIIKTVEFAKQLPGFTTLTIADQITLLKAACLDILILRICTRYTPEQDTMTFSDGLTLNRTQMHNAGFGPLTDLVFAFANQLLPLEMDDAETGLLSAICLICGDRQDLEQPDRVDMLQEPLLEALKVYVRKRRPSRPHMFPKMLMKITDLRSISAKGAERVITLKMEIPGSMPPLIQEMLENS
How it was run: (§1)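 COS-7 cells co-transfected with gal4–RAR ligand-binding-domain fusion and pFR-luc reporter, then treated with compound in phenol-red-free DMEM (1% DMSO) for about one day. Luciferase read after lysis with BrightGlo; EC50 values from replicate experiments given as a ratio of means.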

RARγ = biological target: T2, RARγ (Homo sapiens, UniProt P13631); test: Transactivation assay for RAR gamma (gal4-RAR fusion, luciferase reporter, COS-7 cells); conditions: ratio of test compound EC50 to that of atRA; inactive = no agonist action at the highest concentration tested
T2 construct: gal4 (fusion partner); expressed in transfected cells; host or cells: COS-7
T2 sequence (P13631 185-419 limits assumed): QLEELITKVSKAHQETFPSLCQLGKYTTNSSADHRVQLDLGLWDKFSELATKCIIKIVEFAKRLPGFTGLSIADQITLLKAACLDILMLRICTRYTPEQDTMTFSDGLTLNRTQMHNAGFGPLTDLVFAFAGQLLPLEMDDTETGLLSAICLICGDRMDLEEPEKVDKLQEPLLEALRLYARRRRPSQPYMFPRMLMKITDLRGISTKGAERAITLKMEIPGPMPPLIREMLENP
How it was run: as §1

RARβ = biological target: T3, RARβ (Homo sapiens, UniProt P10826); test: Transactivation assay for RAR beta (gal4-RAR fusion, luciferase reporter, COS-7 cells); conditions: ratio of test compound EC50 to that of atRA; inactive = no agonist action at the highest concentration tested
T3 construct: gal4 (fusion partner); expressed in transfected cells; host or cells: COS-7
T3 sequence (P10826 183-417 limits assumed): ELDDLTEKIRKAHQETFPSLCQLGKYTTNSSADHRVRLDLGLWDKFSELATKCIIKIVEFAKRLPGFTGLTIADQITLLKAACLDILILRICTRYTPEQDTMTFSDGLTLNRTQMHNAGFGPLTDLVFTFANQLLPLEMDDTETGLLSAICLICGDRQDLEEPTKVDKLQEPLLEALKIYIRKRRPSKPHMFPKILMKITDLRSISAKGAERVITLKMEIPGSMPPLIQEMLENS
How it was run: as §1

SMILES | RARα/RARβ ratio (*) (RARα) | RARα activity ratio (RARα) | RARγ activity ratio (RARγ) | RARβ activity ratio (RARβ)
CCOc1cc(C(=O)Nc2ccc(C(=O)O)c(C)c2)cc(Cl)c1OC(C)C [AAA-087, 4-(3-Chloro-5-ethoxy-4-isopropoxybenzamido)-2-methylbenzoic acid] | 286 | 7 | 11725 | 2000
CCOc1c(Cl)cc(C(=O)Nc2ccc(C(=O)O)cc2)cc1OCC1CC1 [AAA-089, 4-(3-Chloro-5-(cyclopropylmethoxy)-4-ethoxybenzamido)benzoic acid] | 392 | 1.3 | 2647 | 510
CCOc1c(Cl)cc(C(=O)Nc2ccc(C(=O)O)c(O)c2)cc1OCC1CC1 [AAA-090, 4-(3-Chloro-5-(cyclopropylmethoxy)-4-ethoxybenzamido)-2-hydroxybenzoic acid] | 250 | 5.0 | 367000 | 1250
CC(C)Oc1cc(C(=O)Nc2ccc(C(=O)O)c(O)c2)cc(Cl)c1OC(C)C [AAA-091, 4-(3-Chloro-4,5-diisopropoxybenzamido)-2-hydroxybenzoic acid] | 135 | 1.6 | 75000 | 216
O=C(O)c1ccc(NC(=O)c2cc(Cl)c(OC3CCC3)c(OC3CCC3)c2)cc1 [AAA-092, 4-(3-Chloro-4,5-di(cyclobutyloxy)benzamido)benzoic acid] | 27 | 2 | 1059 | 53
Cc1cc(NC(=O)c2cc(Cl)c(OC3CCC3)c(OC3CCC3)c2)ccc1C(=O)O [AAA-093, 4-(3-Chloro-4,5-di(cyclobutyloxy)benzamido)-2-methylbenzoic acid] | 46 | 2.0 | 10833 | 92
O=C(Nc1ccc(C(=O)O)c(O)c1)c1cc(Cl)c(OC2CCC2)c(OC2CCC2)c1 [AAA-094, 4-(3-Chloro-4,5-di(cyclobutyloxy)benzamido)-2-hydroxybenzoic acid] | 2852 | 0.23 | 20000 | 656
CC(C)Oc1cc(C(=O)Nc2ccc(C(=O)O)c(F)c2)cc(Cl)c1OC(C)C [AAA-095, 4-(3-Chloro-4,5-diisopropoxybenzamido)-2-fluorobenzoic acid] | 34 | 2.7 | 812 | 92
CCOc1c(Cl)cc(C(=O)Nc2ccc(C(=O)O)c(C)c2)cc1OC1CCC1 [AAA-096, 4-(3-Chloro-5-(cyclobutoxy)-4-ethoxybenzamido)-2-methylbenzoic acid] | 67 | 3.2 | 7895 | 215
CCOc1c(Cl)cc(C(=O)Nc2ccc(C(=O)O)c(C)c2)cc1OCC1CC1 [AAA-097, 4-(3-Chloro-5-(cyclopropylmethoxy)-4-ethoxybenzamido)-2-methylbenzoic acid] | 58 | 2.6 | 100000 | 151
COc1c(Cl)cc(C(=O)Nc2ccc(C(=O)O)cc2)cc1OC1CCC1 [AAA-098, 4-(3-Chloro-5-cyclobutoxy-4-methoxybenzamido)benzoic acid] | 36 | 12 | 2955 | 433
COc1c(Cl)cc(C(=O)Nc2ccc(C(=O)O)c(C)c2)cc1OC1CCC1 [AAA-099, 4-(3-Chloro-5-cyclobutoxy-4-methoxybenzamido)-2-methylbenzoic acid] | 59 | 11 | 89 | 655
COc1c(Cl)cc(C(=O)Nc2ccc(C(=O)O)c(F)c2)cc1OC1CCC1 [AAA-100, 4-(3-Chloro-5-cyclobutoxy-4-methoxybenzamido)-2-fluorobenzoic acid] | 99 | 33 | 11818 | 3273
CCC(CC)Oc1cc(C(=O)Nc2ccc(C(=O)O)cc2)cc(Cl)c1OC [AAA-101, 4-(3-Chloro-4-methoxy-5-(pentan-3-yloxy)benzamido)benzoic acid] | 23 | 1.7 | 375 | 39
CCC(CC)Oc1cc(C(=O)Nc2ccc(C(=O)O)c(C)c2)cc(Cl)c1OC [AAA-102, 4-(3-Chloro-4-methoxy-5-(pentan-3-yloxy)benzamido)-2-methylbenzoic acid] | 33 | 2.2 | 833 | 73
CCC(CC)Oc1cc(C(=O)Nc2ccc(C(=O)O)c(F)c2)cc(Cl)c1OC [AAA-103, 4-(3-Chloro-4-methoxy-5-(pentan-3-yloxy)benzamido)-2-fluorobenzoic acid] | 21 | 2.6 | 583 | 57
COCCOc1cc(C(=O)Nc2ccc(C(=O)O)c(F)c2)cc(Cl)c1OC [AAA-104, 4-(3-Chloro-4-methoxy-5-(2-methoxyethoxy)benzamido)-2-fluorobenzoic acid] | 535 | 19 | 5000 | 10164
COc1c(Cl)cc(C(=O)Nc2ccc(C(=O)O)cc2)cc1OCC(C)(C)C [AAA-105, 4-(3-Chloro-4-methoxy-5-(neopentyloxy)benzamido)benzoic acid] | 13 | 0.66 | 941 | 8.4
CCOc1cc(C(=O)Nc2ccc(C(=O)O)cc2)cc(OCC)c1Br [AAA-106, 4-(4-Bromo-3,5-diethoxybenzamido)benzoic acid] | 34 | 66 | 2326 | 2245
CC(C)Oc1cc(C(=O)Nc2ccc(C(=O)O)cc2)cc(OC(C)C)c1Br [AAA-107, 4-(4-Bromo-3,5-diisopropoxybenzamido)benzoic acid] | 135 | 4.8 | 2833 | 647
CC(C)Oc1cc(C(=O)Nc2ccc(C(=O)O)c(F)c2)cc(OC(C)C)c1Br [AAA-108, 4-(4-Bromo-3,5-diisopropoxybenzamido)-2-fluorobenzoic acid] | 338 | 5.1 | 32500 | 1727
CC(C)Oc1cc(C(=O)Nc2ccc(C(=O)O)c(O)c2)cc(OC(C)C)c1Br [AAA-109, 4-(4-Bromo-3,5-diisopropoxybenzamido)-2-hydroxybenzoic acid] | 396 | 4 | 792000 | 1583
CCOc1cc(C(=O)Nc2ccc(C(=O)O)c(C)c2)cc(OCC)c1Br [AAA-110, 4-(4-Bromo-3,5-diethoxybenzamido)-2-methylbenzoic acid] | 120 | 16 | >12000 | 1921
Cc1cc(NC(=O)c2cc(OC(C)C)c(Br)c(OC(C)C)c2)ccc1C(=O)O [AAA-111, 4-(4-Bromo-3,5-diisopropoxybenzamido)-2-methylbenzoic acid] | 71 | 10 | 50000 | 712
CC(C)Oc1cc(C(=O)Nc2ccc(C(=O)O)cc2)cc(OC(C)C)c1Cl [AAA-112, 4-(4-Chloro-3,5-diisopropoxybenzamido)benzoic acid] | 1212 | 2 | 1268 | 2464
Cc1cc(NC(=O)c2cc(Cl)c(Cl)c(OC(C)C)c2)ccc1C(=O)O [AAA-113, 4-(3,4-Dichloro-5-isopropoxybenzamido)-2-methylbenzoic acid] | 231 | 3.9 | 11093 | 900
CCOc1cc(C(=O)Nc2ccc(C(=O)O)cc2)cc(OC(CC)CC)c1Cl [AAA-114, 4-(4-Chloro-3-ethoxy-5-(pentan-3-yloxy)benzamido)benzoic acid] | 23 | 4.4 | 22759 | 100
